26 molecules from patent publication US12344595B2, “2-amino-n-phenyl-nicotinamides as NAV1.8 inhibitors” (Merck Sharp & Dohme LLC, priority 2018, dated 2025) can be followed below.

This experiment deals with human Nav1.8 (Homo sapiens (Human), UniProt Q9Y5Y9). Nature of the experiment: Nav1.8 Qube automated patch-clamp assay. The class given is cell-based. Conditions: Nav1.8 Qube Assay; human Nav1.8 channels stably expressed in HEK 293 cells. The method, then: Qube® Assay Experimental Procedure
Sequence of human Nav1.8 (Q9Y5Y9 whole entry): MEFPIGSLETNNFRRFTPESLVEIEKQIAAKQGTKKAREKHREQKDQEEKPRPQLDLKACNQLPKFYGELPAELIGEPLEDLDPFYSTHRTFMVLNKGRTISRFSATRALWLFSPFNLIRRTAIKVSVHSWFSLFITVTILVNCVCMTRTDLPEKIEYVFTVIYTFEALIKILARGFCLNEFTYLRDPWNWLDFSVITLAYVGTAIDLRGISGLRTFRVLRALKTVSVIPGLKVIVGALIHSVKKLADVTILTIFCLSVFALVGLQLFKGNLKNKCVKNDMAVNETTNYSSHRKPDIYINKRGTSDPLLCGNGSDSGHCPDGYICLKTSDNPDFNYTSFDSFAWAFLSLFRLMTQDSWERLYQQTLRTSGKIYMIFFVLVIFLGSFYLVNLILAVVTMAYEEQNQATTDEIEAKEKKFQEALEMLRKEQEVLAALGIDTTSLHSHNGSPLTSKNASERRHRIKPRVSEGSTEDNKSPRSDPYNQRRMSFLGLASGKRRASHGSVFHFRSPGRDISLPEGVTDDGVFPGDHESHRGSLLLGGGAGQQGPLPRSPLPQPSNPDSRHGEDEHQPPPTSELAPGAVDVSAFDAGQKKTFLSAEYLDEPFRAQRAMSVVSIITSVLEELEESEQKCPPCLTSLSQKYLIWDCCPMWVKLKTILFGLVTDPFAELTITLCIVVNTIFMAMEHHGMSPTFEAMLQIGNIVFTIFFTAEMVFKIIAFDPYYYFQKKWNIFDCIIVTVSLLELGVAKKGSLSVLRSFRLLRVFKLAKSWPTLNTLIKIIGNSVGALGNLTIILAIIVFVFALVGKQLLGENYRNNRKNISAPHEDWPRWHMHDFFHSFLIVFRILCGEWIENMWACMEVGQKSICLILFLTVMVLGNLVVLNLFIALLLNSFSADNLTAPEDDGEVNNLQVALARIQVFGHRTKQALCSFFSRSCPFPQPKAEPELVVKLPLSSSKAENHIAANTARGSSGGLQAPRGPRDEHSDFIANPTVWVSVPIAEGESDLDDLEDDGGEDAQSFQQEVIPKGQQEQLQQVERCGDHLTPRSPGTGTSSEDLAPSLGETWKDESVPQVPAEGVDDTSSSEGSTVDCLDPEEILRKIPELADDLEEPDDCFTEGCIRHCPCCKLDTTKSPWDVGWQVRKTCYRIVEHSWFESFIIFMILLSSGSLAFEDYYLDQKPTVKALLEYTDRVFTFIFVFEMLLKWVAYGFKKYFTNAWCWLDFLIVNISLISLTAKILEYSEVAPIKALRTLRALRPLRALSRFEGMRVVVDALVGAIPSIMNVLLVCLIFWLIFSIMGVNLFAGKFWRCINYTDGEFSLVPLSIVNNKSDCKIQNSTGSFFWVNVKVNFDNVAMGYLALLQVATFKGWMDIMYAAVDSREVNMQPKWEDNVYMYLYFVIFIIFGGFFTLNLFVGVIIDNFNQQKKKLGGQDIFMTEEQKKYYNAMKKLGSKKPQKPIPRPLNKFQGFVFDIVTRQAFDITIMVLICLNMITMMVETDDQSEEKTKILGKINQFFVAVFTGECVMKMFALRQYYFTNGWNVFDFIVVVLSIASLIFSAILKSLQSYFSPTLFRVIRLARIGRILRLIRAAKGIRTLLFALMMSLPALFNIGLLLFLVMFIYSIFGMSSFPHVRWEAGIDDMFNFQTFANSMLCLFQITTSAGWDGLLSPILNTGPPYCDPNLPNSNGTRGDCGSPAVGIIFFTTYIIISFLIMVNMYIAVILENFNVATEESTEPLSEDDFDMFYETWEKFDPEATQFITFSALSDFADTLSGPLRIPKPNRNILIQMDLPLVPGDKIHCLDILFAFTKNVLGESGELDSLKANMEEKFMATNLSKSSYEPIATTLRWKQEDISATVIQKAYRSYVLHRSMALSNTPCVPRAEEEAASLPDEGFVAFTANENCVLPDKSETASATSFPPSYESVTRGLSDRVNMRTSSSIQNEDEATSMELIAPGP
Compounds were tested on human Nav1.8 and Nav1.5 channels stably expressed in human embryo kidney (HEK) 293 cells. Sodium current measurements on Qube® were conducted as follows: automated 384-well patch-clamp assays on the Qube® platform (Sophion Biosciences) were used to measure the inhibition of sodium flow through human Nav1.8 and Nav1.5 channels. Whole-cell voltage-clamp recordings were performed in QChips® (Sophion Biosciences) at room temperature. Nav1.8 current measurements on Qube® were obtained as follows: Nav1.8 currents were elicited with a 10 second 1 Hertz (Hz) pulse train from a holding potential of −90 millivolts (mV), delivered to the cells once per minute in the control condition (DMSO only) and after compound addition. The 1 hertz pulse train stimulation consisted of ten test pulses to 10 millivolt (mV) for 20 milliseconds (ms), each of which was followed by a 980 millisecond repolarization to −67 millivolts. At the end of the 10 second pulse train stimulation, a 5 second hyperpolarization step to −100 millivolt (mV) was used to recover Nav1.8 from fast inactivation. The peak currents elicited by the 1st and 10th test pulses were used to determine IC50 values for resting inhibition and inactivated state inhibition. Nav1.5 current measurements on Qube® were obtained as follows: Nav1.5 currents were elicited with a 20 second 3 Hertz pulse train in the control condition (DMSO only) and after compound addition. The pulse train consisted of sixty 20 millisecond test pulses to 0 millivolt from a holding potential of −80 millivolt (mV). The average peak currents elicited by the last 3 test pulses were used to determine IC50 values for Nav1.5 inhibition.
The following buffers were used for the Qube® recordings: External buffer for Nav1.8 Qube® recording: 150 NaCl, 2 CaCl2, 5 KCl, 1 Mg Cl2, 10 HEPES, 12 Dextrose; External buffer for Qube® Nav1.5 recording: 120 N-Methyl-D-Glucamine, 40 NaCl, 1 KCl, 2.7 CaCl2, 5 HEPES, 0.5 MgCl2; and Internal buffer for Qube® recording: 120 CsF, 30 CsCl, 10 EGTA, 5 HEPES, 5 NaF, 2 MgCl2.
For all Qube® experiments offline analysis was used to determine percent inhibition as a function of drug concentration. IC50 values were determined by fitting to the Hill equation.
(In general: In patch-clamp work, channel activity is measured electrically.)
What is called IC50 is the concentration that gives 50% inhibition. The molecule `Cc1nc(N2CCC(F)(F)CC2)c(C(=O)Nc2cccc(C(N)=O)c2)c(C)c1Cl` [Example 16, N-(3-carbamoyl-phenyl)-5-chloro-2-(4,4-difluoro-1-piperidyl)-4,6-dimethyl-pyridine-3-carboxamide] had an IC50 of 24 nM.

`NS(=O)(=O)c1cccc(NC(=O)c2cc(C(F)(F)F)cnc2N2CC3CCCC32)c1` (centres unmarked) [Example 59, 2-(6-azabicyclo[3.2.0]heptan-6-yl)-N-(3-sulfamoyl-phenyl)-5-(trifluoro-methyl)pyridine-3-carboxamide] yielded an IC50 of 698 nM.

For `NS(=O)(=O)c1cccc(NC(=O)c2cc(C(F)(F)F)cnc2N2C[C@H]3CC[C@H]3C2)c1` [Example 134, 2-((1R,5S)-3-azabicyclo[3.2.0]heptan-3-yl]-N-(3-sulfamoyl-phenyl)-5-(trifluoro-methyl)-pyridine-3-carboxamide], inhibition was half-maximal at 25 nM (IC50).

Regarding `CS(=O)(=O)c1cccc(NC(=O)c2cc(C(F)(F)F)cnc2N2CCC3(CC2)CC3)c1` [Example 99, 2-(6-azaspiro[2.5]octan-6-yl)-N-(3-methylsulfonylphenyl)-5-(trifluoromethyl)-pyridine-3-carboxamide], 131 nM corresponded to half-maximal inhibition (IC50).

In turn, `Cc1cc(Cl)nc(N2CCCCCC2)c1C(=O)Nc1cccc(S(N)(=O)=O)c1` [Example 29, 2-(azepan-1-yl)-6-chloro-4-methyl-N-(3-sulfamoylphenyl)nicotinamide] registered an IC50 of 10 nM.

`CC1CN(c2ncc(C(F)(F)F)cc2C(=O)Nc2ccc3c(c2)S(=O)(=O)NC3)CCC1(F)F` (single isomer, unassigned) [Example 113, 2-[(3S or 3R)-4,4-difluoro-3-methyl-1-piperidyl]-N-(1,1-dioxo-2,3-dihydro-1,2-benzothiazol-6-yl)-5-(trifluoromethyl) pyridine-3-carboxamide] came in with an IC50 of 73 nM.

Molecule `Cc1nc(N2CCCCCC2)c(C(=O)Nc2cccc(S(C)(=O)=O)c2)c(C)c1Cl` [Example 7, 2-(azepan-1-yl)-5-chloro-4,6-dimethyl-N-(3-methylsulfonyl-phenyl)pyridine-3-carboxamide] returned an IC50 of 3.5 nM.

In turn, `NS(=O)(=O)c1cccc(NC(=O)c2cc(C(F)(F)F)cnc2N2CCC3(CC2)CC3)c1` [Example 43, 2-(6-azaspiro[2.5]octan-6-yl)-N-(3-sulfamoylphenyl)-5-(trifluoromethyl)nicotinamide] yielded an IC50 of 57 nM.

For `CS(=O)(=O)c1cccc(NC(=O)c2cc(C(F)(F)F)cnc2N2CCCC(F)(F)C2)c1` [Example 102, 2-(3,3-difluoro-1-piperidyl)-N-(3-methylsulfonylphenyl)-5-(trifluoromethyl)-pyridine-3-carboxamide], half-maximal inhibition (IC50) required 706 nM.

Consider `CS(=O)(=O)c1cccc(NC(=O)c2cc(C(F)(F)F)cnc2N2CCc3ccccc3C2)c1` [Example 98, 2-(3,4-dihydro-1H-isoquinolin-2-yl)-N-(3-methylsulfonylphenyl)-5-(trifluoromethyl)-pyridine-3-carboxamide], for which the IC50 worked out at 93 nM.

As for `Cc1cc(Cl)nc(N2CCCC(F)(F)CC2)c1C(=O)Nc1cccc(S(C)(=O)=O)c1` [Example 8, 6-chloro-2-(4,4-difluoroazepan-1-yl)-4-methyl-N-(3-methyl-sulfonylphenyl)pyridine-3-carboxamide], it took 5.8 nM to reach half-maximal inhibition (IC50).

Molecule `CC1CN(c2ncc(C(F)(F)F)cc2C(=O)Nc2ccc3c(c2)S(=O)(=O)NC3)CCC1(F)F` (single isomer, unassigned) [Example 112, 2-[(3R or 3S)-4,4-difluoro-3-methyl-1-piperidyl]-N-(1,1-dioxo-2,3-dihydro-1,2-benzothiazol-6-yl)-5-(trifluoromethyl) pyridine-3-carboxamide] came in with a half-inhibitory concentration (IC50) of 72 nM.

Consider `Cc1cc(Cl)nc(N2CCCC(F)(F)CC2)c1C(=O)Nc1cccc(C(N)=O)c1` [Example 17, N-(3-carbamoyl-phenyl)-6-chloro-2-(4,4-difluoroazepan-1-yl)-4-methyl-pyridine-3-carboxamide], for which the half-inhibitory concentration (IC50) was 29 nM.

Turning to `NS(=O)(=O)c1cccc(NC(=O)c2cc(C(F)(F)F)cnc2N2CCNC(C(F)(F)F)C2)c1` (centres unmarked) [Example 143, N-(3-sulfamoylphenyl)-5-(trifluoromethyl)-2-[3-(trifluoromethyl)-piperazin-1-yl]pyridine-3-carboxamide], the IC50 was found to be 2180 nM.

Regarding `CC1CCN(c2ncc(C(F)(F)F)cc2C(=O)Nc2cccc(S(N)(=O)=O)c2)CC(C)(C)C1` (centres unmarked) [Example 47, N-(3-sulfamoylphenyl)-5-(trifluoromethyl)-2-(3,3,5-trimethylazepan-1-yl)pyridine-3-carboxamide], half-maximal inhibition (IC50) was put at 29 nM. Against the preceding molecule, the IC50 is about 75-fold lower.

Molecule `NS(=O)(=O)c1cccc(NC(=O)c2cc(OC(F)(F)F)cnc2N2CCCC(F)(F)CC2)c1` [Example 39, 2-(4,4-difluoroazepan-1-yl)-N-(3-sulfamoylphenyl)-5-(trifluoromethoxy)nicotinamide] returned an IC50 of 2.5 nM.

`C=CCCc1cnc(N2CCCC(F)(F)CC2)c(C(=O)Nc2cccc(S(N)(=O)=O)c2)c1` [Example 161, 5-(but-3-en-1-yl)-2-(4,4-difluoroazepan-1-yl)-N-(3-sulfamoylphenyl)nicotinamide]: the IC50 amounted to 3.2 nM.

For the molecule `CC(C)(C)c1ccc(C(=O)Nc2cccc(S(N)(=O)=O)c2)c(N2CCCCC2)n1` [Example 42, 6-(tert-butyl)-2-(piperidin-1-yl)-N-(3-sulfamoylphenyl)nicotinamide], half-maximal inhibition (IC50) was put at 2680 nM.

Regarding `NS(=O)(=O)c1cccc(NC(=O)c2cc(C(F)(F)F)cnc2N2CCC(F)(F)CC2)c1` [Example 1, 2-(4,4-difluoropiperidin-1-yl)-N-(3-sulfamoylphenyl)-5-(trifluoromethyl)nicotinamide], half-maximal inhibition (IC50) was put at 47 nM.

Consider `NS(=O)(=O)c1cccc(NC(=O)c2cc(C(F)(F)F)cnc2N2CCCOCC2)c1` [Example 56, 2-(1,4-oxazepan-4-yl)-N-(3-sulfamoylphenyl)-5-(trifluoromethyl)-pyridine-3-carboxamide], for which the midpoint of inhibition, the IC50, lay at 448 nM. Compared with the last molecule, the IC50 is about 9.5-fold higher.

For the molecule `CS(=O)(=O)c1cccc(NC(=O)c2ccc(Cl)nc2N2CCCC(F)(F)CC2)c1` [Example 9, 6-chloro-2-(4,4-difluoroazepan-1-yl)-N-(3-methylsulfonyl-phenyl)pyridine-3-carboxamide], the IC50 was found to be 7 nM.

Turning to `Cc1nc(N2CCCCC2)c(C(=O)Nc2cccc(S(C)(=O)=O)c2)c(C)c1Cl` [Example 12, 5-chloro-4,6-dimethyl-N-(3-methylsulfonyl-phenyl)-2-(1-piperidyl)pyridine-3-carboxamide], the IC50 worked out at 54 nM.

On to `Cc1nc(N2CCCCCC2)c(C(=O)Nc2cccc(S(N)(=O)=O)c2)cc1C#N` [Example 157, 2-(azepan-1-yl)-5-cyano-6-methyl-N-(3-sulfamoylphenyl)-pyridine-3-carboxamide], for which the IC50 is 10 nM.

Turning to `NS(=O)(=O)c1cccc(NC(=O)c2cc(Br)cnc2N2CCCCCC2)c1` [Example 32, 2-(azepan-1-yl)-5-bromo-N-(3-sulfamoyl-phenyl)pyridine-3-carboxamide], the IC50 worked out at 24 nM. This IC50 lies about 2.4-fold higher than the previous one.

In turn, `NC(=O)c1cccc(NC(=O)c2cc(Br)cnc2N2CCCCCC2)c1` [Example 38, 2-(azepan-1-yl)-5-bromo-N-(3-carbamoyl-phenyl)pyridine-3-carboxamide] yielded an IC50 of 279 nM.

Take `CS(=O)(=O)c1cccc(NC(=O)c2cc(Br)cnc2N2CCCCCC2)c1` [Example 35, 2-(azepan-1-yl)-5-bromo-N-(3-methylsulfonyl-phenyl)pyridine-3-carboxamide]: half-maximal inhibition (IC50) required 29 nM.
